Results reported in patent US5132424A, “Pyrazolo-pyrrolo-pyrimidine-diones” (The Upjohn Company, priority 1991, dated 1992).

What was measured:
[1] = test system: Moderately Hypercholesterolemic Quail; assay: In vivo testing in moderately hypercholesterolemic quail (serum LDL cholesterol); parameters: species or system Japanese quail; conditions: compound in diet, two weeks
Description: Male SEA Japanese quail, approximately four to six weeks of age, were reared at Miles Quail Farm, Gobles, Mich. from a colony of animals originally derived at The Upjohn Company. Birds were randomly distributed into ten groups of ten quail each. They were house individually in ten cage units and fed a commercial diet (Purina Game Bird Layena, Ralston Purina Co., St. Louis, Mo.) mixed with various amounts of cholesterol with and without 1% peanut oil. Compounds were mixed into 2.4 kg of the diet using a feed mixer (Hobard A-200) for twenty minutes. Control groups received normal diet. In one series of experiments birds were fed 0.5% cholesterol/1% peanut oil plus colestipol hydrochloride. After two weeks on the diets, each bird was bled from the right jugular vein and serum samples were obtained after low speed centrifugation. Food intake was determined for each group by subtracting the weight of diet remaining at the end of the experiment from the weight of the starting diet.
Beta- and alpha-lipoproteins were isolated from individual serum samples using PEG-8000 and glycerine buffer, pH 9 (9). Three hundred microliters of serum were mixed with 300 microliters of solution. A (20 grams of PEG-8000 plus 100 ml of glycerine buffer, pH 9) using a Micromedic automatic pipet. Samples were allowed to stand at room temperature for ten minutes and then were centrifuged for twenty minutes at 2000× g at 4° C. The beta-lipoprotein pellet was dissolved in 300 microliters of solution B (10 ml Triton X-100 plus 1000 ml Milli Q water). Cholesterol, triglycerides and total protein in alpha- and beta-lipoproteins were measured using the Deman Autoanalyzer, Model AU 500 (Cooper Biomedical Inc.) and Worthington Demand Enzymatic reagents.
All data were statistically analyzed using a one-way classification design. Values were transformed to logarithms to achieve more homogenous within-group variances. The mean response for each diet and for the effect was compared with the mean observed in the control animals by the LSD test. Treated/control ratios of antilogs of the log means are also presented.

ACAT enzyme [2] = assay: ACAT Inhibition Assay (inhibition of cholesterol esterification in cultured Fu5AH rat hepatoma cells); format: cell-based; parameters: key to Activity: Active: Compounds with ACAT inhibiting activity equal to, or greater than, that of chloropromazine are declared active; conditions: for % Inhib. of Chol. Esterf.: Fu5AH cells, 18 hours; for Activity: compared with chlorpromazine
Description: A standard in vitro test system designed to identify compounds capable of inhibitory the ACAT enzyme in cultured Fu5AH rat hepatoma cells which was used to test the compounds of this invention, among others, is described hereinbelow.
Since the ACAT enzyme in Fu5AH cells is similar if not identical to the ACAT enzyme in arterial tissue in valuable, warm-blooded animals, including humans, the Fu5AH cell test represents a more efficient, simplified and economical means of screening for ACAT inhibitors than similar assays which depend upon the use of arterial tissue and arterial subfractions as the source of the ACAT enzyme.
For our in vitro test the Fu5AH rat hepatoma cell line was selected as our source of the ACAT enzyme since this particular cell line mimicked important characteristics of human and valuable animal arterial cells during the development of atherosclerosis. The Fu5AH cells accumulate cholesterol extensively when incubated with hyperlipemic plasma proteins; more importantly, Fu5HA cells accumulated the cholesterol predominantly as the esterified form through the action of the ACAT enzyme. See Rothblat, G. H., "Cholesteryl Ester Metabolism in Tissue Culture Cell. I. Accumulation in Fu5AH Rat Hepatoma Cells", Lipids, 9, (1974) page 526.
The Fu5AH cells used in our in vitro assay were first acquired from G. H. Rothblat, supra, of the Medical College of Pa.
The Fu5AH rat hepatoma cell-line was derived from the Reuber H-35 rat hepatoma. (See Reuber, M.D., "A Transplantable Bilesecreting Hepatocellular Carcinoa in the Rat", J. Natl., Cancer Inst., 26 (1961), page 891. The cell-line is maintained in Eagle's Minimal Essential Medium (MEM, GiBCO) supplemented with 5% bovine fetal calf serum. Incubation is at 36° C. in an atmosphere of 5% CO2 in air (Hotpack, Model 351922). Cells from stock cultures, grown to confluency in 25 cm^2 flasks (Falcon) containing 10 ml. medium, are detached with 0.25% trypsin in 1% ethylenediaminetetraacetic acid (EDTA) (Gibco), diluted 1:10 with MEM and mixed by agitation through a pipette which serves to disrupt the cellular clumps. Stock cultures are replenished with fresh medium at 3 to 4 day intervals.
One ml. aliquots of the diluted stock suspension described above are then transferred to 60 mm. dishes (Falcon) containing four ml. MEM and the seeded cells are allowed to grow to confluence (three days). At confluence, the medium is removed by aspiration and the cells are washed once with MEM. Five ml. of MEM supplemented with 5% hyperlipemic rabbit serum (HRS) (HRS is obtained from male New Zealane rabbits fed Purina Chow® rabbit feed supplemented with 1% cholesterol and 3% peanut oil (w/w/w/) for two to three weeks. Pooled sera from two or more rabbits are filtered through a 0.45 mμ filter (Nalgene) and stored frozen in convenient aliquots until used) and containing 1μ Ci/ml of ^3 H-cholesterol are then added to the dishes as the experimental (assay) medium. The experimental medium is labeled with 1,2-^3 H(N)-cholesterol (sp. act. approx. 40-60 Ci/mol, New Zealand Nuclear Corp.) prior to its addition to the confluent cultures and is prepared as follows. Five ml. of HRS is diluted with approximately 20 ml of MEM and the mixture is labeled by the addition of 100 μCi ^3 H-cholesterol dissolved in 100 μl absolute ethyl alcohol. The resulting mixture is then incubated for four hours at 36° C. to permit equilibration of the labeled cholesterol with the serum lipoprotein-cholesterol. After the equilibration period, the mixture is diluted to 100 ml. with MEM and used as the labeled assay medium. Following the addition of the labeled medium to the dishes, dimethylsulfoxide solutions of the test substances and the positive standard chloropromazine HCl (1 mg/ml) are added to the cultures in volumes of 25, 50, […]; control cultures receive equivalent volumes of dimethylsufoxide alone. […]

ACAT enzyme [3] = conditions: known drug; cited from earlier work
membranes = conditions: known drug; cited from earlier work
[4] = test system: blood platelet aggregation; conditions: known drug; cited from earlier work

SMILES	Percent Change in Serum LDL Cholesterol From Control [1]	% Inhib. of Chol. Esterf. (ACAT enzyme [2]; 5.0 ug/ml)	Activity (ACAT enzyme [2]; 5.0 ug/ml)	% Inhib. of Chol. Esterf. (ACAT enzyme [2]; 10.0 ug/ml)	Activity (ACAT enzyme [2]; 10.0 ug/ml)	% Inhib. of Chol. Esterf. (ACAT enzyme [2]; 15.0 ug/ml)	Activity (ACAT enzyme [2]; 15.0 ug/ml)	potency for ACAT enzyme inhibition (in words) (ACAT enzyme [2]; among the compounds of Table I)	ACAT enzyme inhibition (in words) (ACAT enzyme [3])	change of membrane fluidity (in words) (membranes)	blood platelet aggregation inhibition (in words) [4]
O=C1c2c(c(=O)n3nc(-c4ccccc4)cc3n2Cc2ccccc2)CN1C1CCCCC1 [Example 2, 6-Cyclohexyl-6,7-dihydro-2-phenyl-4-(phenylmethyl)-4H-pyrazolo[1,5-a]pyrrolo[3,4-d]pyrimidine-5,8-dione]	-50%	60.1%	Active	87.7%	Active	93.6%	Active				
C=CCCCCn1c2c(c(=O)n3nc(-c4ccccc4)cc13)CN(C1CCCCC1)C2=O [Example 1, 6-Cyclohexyl-4-(5-hexenyl)-6,7-dihydro-2-phenyl-4H-pyrazolo[1,5-a]pyrrolo[3,4-d]pyrimidine-5,8-dione]	-42%	68.6%	Active	93.2%	Active	96.1%	Active				
O=C(Cn1c2c(c(=O)n3nc(-c4ccccc4)cc13)CN(C1CCCCC1)C2=O)c1ccccc1 [Example 4, 4-(Benzoylmethyl)-6-cyclohexyl-6,7-dihydro-2-phenyl-4H-pyrazolo[1,5-a]pyrrolo-[3,4-d]pyrimidine-5,8-dione]	-59%	88.6%	Active	92.2%	Active	91.9%	Active	most potent compound			
CN(C)CCCN1c2ccccc2Sc2ccc(Cl)cc21 [chlorpromazine]									ACAT enzyme inhibitor	change the fluidity of membranes	blood platelet aggregation inhibition properties
